According to patent US8716236B2, “Inhibitors of IAP” (Genentech, Inc., priority 2012, dated 2014):

Tested on: human breast MDA-MB-231•X1 cells
Test: Tumor xenograft study
Type: in vivo, mouse
Conditions: MDA-MB-231•X1 xenograft in female nude mice, iv Qwk
Experimental: All procedures involving animals were performed in accordance with the guidelines of the Genentech Institutional Animal Care and Use Committee. Cancer cells such as Human breast MDA-MB-231, colorectal, Colo205, or NSCLC, Calu6 cancer cells were obtained from American Type Culture Collection (Manassas, Va.). Cells were resuspended in HBSS (Colo205) or the cell suspension was mixed 1:1 with Matrigel (BD Biosciences; MDA-MB-231, Calu6). The cells (1.5×10^7 for MDA-MB-231; 5.0×10^7 for Colo205, Calu6) were then implanted subcutaneously into the right flank of female nude mice (Charles River Laboratories, Hollister, Calif.) aged 6-8 weeks. Tumor volumes were calculated using the mean diameter measured with vernier calipers using the formula v=0.5×a×b^2, were a and b are the largest and smallest perpendicular tumor diameters, respectively. Ten mice with the appropriate mean tumor volume were assigned randomly to each of six groups. The mean tumor volume±the standard error of the mean (SEM) for all six groups was 168±3 mm^3 at the initiation of treatment (Day 0). The mice were observed on each day of the study, and tumor volumes and body weights were measured twice each week.

SMILES | MED
CN[C@@H](C)C(=O)N[C@H](C(=O)N1CCCC1C(=O)Nc1snnc1-c1ccccc1)C1CCCCC1 (some centres unmarked) [III] | 18.6 mg/kg
CN[C@@H](C)C(=O)N[C@H](C(=O)N1CCC[C@H]1C(=O)Nc1sc(-c2ncco2)nc1-c1ccccc1)C1CCCCC1 [Ia, (S)-1-[(S)-2-cyclohexyl-2-((S)-2-methylamino-propionylamino)-acetyl]-pyrrolidine-2-carboxylic acid (2-oxazol-2-yl-4-phenyl-thiazol-5-yl)-amide] | 3.4 mg/kg
